{"source": "patent US5480888A", "about": "“Inhibitor for restenosis after percutaneous coronary arterioplasty” (Daiichi Pharmaceutical Co., Ltd., priority 1992, dated 1996)", "system": "post PTCA vessels", "assay": "Clinical test: restenosis after elective PTCA in patients with angina pectoris (coronary angiography, video-densitometry)", "format": "in vivo", "method": "29 patients suffering from angina pectoris who received elective PTCA (43 sites ) orally took 2-phenyl-1,2-benzoisoselenazol-3(2H )-one (hereinafterreferred to as compound A) after meal with a daily dose of 200 mg, twice a day, 100 mg for each time, starting from three days prior to the PTCA operation over 3 months after operation (treated group ). […] The stenosed degree was measured by video-densitometry (Reiber JHC et al., Circulation 1985; 71:280-288), and inhibition of restenosis was evaluated on the basis of the findings. […]\nIn both of the treated and control groups, calcium antagonists such as nifedipine and diltiazem, and antiarteriosclerotic agents such as elastase were concurrently administered as required. As a result, there was no significant difference according to the .chi.^2 test between the two groups with regard to the use of concomitant compounds and other patient characteristics including the age, the site of the lesion, etc.", "data": [{"smiles": "O=c1c2ccccc2[se]n1-c1ccccc1", "note": "[compound A, 2-phenyl-1,2-benzoisoselenazol-3(2H)-one]", "values": [{"measurement": "onset rate of restenosis based on the number of patients", "setting": "6 months after operation, treated group, 29 patients, control 38.2%", "value": 18.6, "unit": "%"}, {"measurement": "inhibition of restenosis in the location of operation", "setting": "compared to the control group, Table 2", "value": "remarkable inhibition of restenosis"}, {"measurement": "Stenosed Degree Before PTCA", "setting": "treated group, 43 sites, 100 mg twice a day orally from three days prior to PTCA, control 87 +/- 11", "value": "89 +/- 10"}, {"measurement": "Stenosed Degree 3 Months after PTCA", "setting": "treated group, 43 sites, 100 mg twice a day orally, control 78 +/- 39, *P<0.05 vs Placebo, Chi square analysis", "value": "54 +/- 31"}, {"measurement": "Stenosed Degree After PTCA", "setting": "treated group, 43 sites, immediately after PTCA, 100 mg twice a day orally, control 32 +/- 23", "value": "35 +/- 28"}]}]}
